The subject of one series is IL23. The conditions noted are these: as tested in PCT/CN2021/140271; read-out: HEK blue IL23 IC50; cited from earlier work.
The nature of series [1]: Dynamic vapor sorption (DVS) analysis. Type of series: physicochemical. The conditions noted are these: for hygroscopic weight gain / water uptake (DVS): at 90% RH. How it is done: Dynamic Vapor Sorption (DVS) Analysis: Moisture sorption/desorption data was collected on a DVS Intrinsic PLUS (SMS, UK). The sample was placed into a tared sample chamber and automatically weighed. The sample was dried at 40° C. until the dm/dt was less than 0.002% and cooled to 25° C.

A short description of series [2]: Solubility in bio-relevant media (FaSSIF, FeSSIF, SGF). Type of series: physicochemical. An excerpt: (§1) High Performance Liquid Chromatography (HPLC): a representative HPLC method is shown below, which can be used, for example, to analyze the purity, solubility, and stability of Compound 1 herein.
The nature of series [3]: Slurry bridging studies among Form I, Form III and Form VI under different water activities. It is filed as physicochemical. The conditions noted are these: versus Form I and Form VI.
A short description of a further series: Solid stability. Type of series: physicochemical.
From the text: as §1

The nature of series [4]: Inter-conversion study among identified anhydrates in organic solvents. Type of series: physicochemical. The conditions noted are these: different organic solvents, RT to 60° C. As for the experimental part: Inter-conversion study among identified anhydrates (Form I, Form II, Form III, Form IV, Form V, Form VIII, Form X, Form XIII, Form XIV, Form XV) was conducted in different organic solvents between RT to 60° C.

The mark [5] stands for this setting: Simulated Gastric Fluid (SGF), simulated gastric fluid, thermodynamic from solid, SGF.
The mark [6] stands for this setting: thermodynamic from solid, FaSSIF.
[7] abbreviates: thermodynamic from solid, FeSSIF.

The text below walks through data of patent publication US12655123B2, “Heteroaryl compounds, solid forms, preparation methods and uses thereof” (InventisBio Co., Ltd., priority 2022, dated 2026).

SMILES strings stand for the structures. In brackets after ≈: the same amount, converted by molar mass. Entries after “also recorded” stand apart in the source; their conditions may differ. Structures can show the parent of a compound that is named as a salt. A value given as a limit tells only on which side of the number the result lay.

For `[2H]C([2H])([2H])NC(=O)c1nnc(NC(=O)C2CC2)cc1Nc1ncc(Cl)cc1S(C)(=O)=O` [Compound 1], the concentration for half-maximal inhibition (IC50) (as a rule, the concentration that gives 50% inhibition) with IL23 was 2.5 nM.

Consider `[2H]C([2H])([2H])NC(=O)c1nnc(NC(=O)C2CC2)cc1Nc1ncc(Cl)cc1S(C)(=O)=O` [sulfate Form A], for which, in series [1], the “hygroscopic weight gain / water uptake (DVS)” value is on record as “about 10%”.

With `[2H]C([2H])([2H])NC(=O)c1nnc(NC(=O)C2CC2)cc1Nc1ncc(Cl)cc1S(C)(=O)=O` [phosphate Form E], the “hygroscopic weight gain / water uptake (DVS)” value in series [1] is “about 0.92%”.

Turning to `[2H]C([2H])([2H])NC(=O)c1nnc(NC(=O)C2CC2)cc1Nc1ncc(Cl)cc1S(C)(=O)=O` [sulfate Form B], the “hygroscopic weight gain / water uptake (DVS)” value in series [1] is on record as “about 1.0%”. The solubility – broadly, the concentration that dissolves in the medium under given conditions – in series [2] (bio-relevant media (FaSSIF, FeSSIF, SGF), fassgf or other biorelevant, thermodynamic from solid) is under 20 µg/mL.

With `[2H]C([2H])([2H])NC(=O)c1nnc(NC(=O)C2CC2)cc1Nc1ncc(Cl)cc1S(C)(=O)=O` [Form III], the “water activity up to which the form is more stable” value is “not more than 0.56” in series [3] (25° C.) and at most 0.83 in series [3] (50° C.). For the same compound, the Solid stability entry in the series “Solid stability” (40° C./75% RH for 7 d) is “physically and chemically stable; also recorded: Chemically and physically stable”; in “Solid stability” (60° C. for 7 d), “physically and chemically stable; also recorded: Chemically and physically stable”; in the series “Solid stability” (92.5% RH for 10 d), “crystal form remained unchanged; also recorded: Physically stable”. In series [1], the DVS reversibility entry was “Reversible”. The “DVS Wt. gain %” value in series [1] (0-80% RH) is on record as 0.09%, 0-80% RH; in series [1] (80-90% RH) it was 0.03%, 80-90% RH. Further, in series [1], the “hygroscopic weight gain / water uptake (DVS)” value amounted to 0.13%. The “Solubility (in words)” value in series [2] is “low and pH-dependent with higher solubility observed in Simulated Gastric Fluid (SGF)”. Further, the solubility at 0.5 h in series [2] (setting [5]) was 7.3 µg/mL (≈ 17.1 µM); in series [2] (setting [6]), 1.1 µg/mL (≈ 2.57 µM); in series [2] (setting [7]) it was 2.6 µg/mL (≈ 6.08 µM). Further, the solubility at 2 h in series [2] (setting [5]) was 8.2 µg/mL (≈ 19.2 µM); in series [2] (setting [6]), 1.1 µg/mL (≈ 2.57 µM); in series [2] (setting [7]), 3.4 µg/mL (≈ 7.95 µM). For the same compound, the solubility at 24 h was 5.7 µg/mL (≈ 13.3 µM) in series [2] (setting [5]), 1.3 µg/mL (≈ 3.04 µM) in series [2] (setting [6]) and 4.1 µg/mL (≈ 9.58 µM) in series [2] (setting [7]). Besides, the “relative stability among anhydrate forms” value in series [4] was “most stable anhydrate form”.

In the case of `[2H]C([2H])([2H])NC(=O)c1nnc(NC(=O)C2CC2)cc1Nc1ncc(Cl)cc1S(C)(=O)=O` [choline salt Form K], in series [1], the “hygroscopic weight gain / water uptake (DVS)” value is “about 23%”.
